Where two headings read alike, the source gives them in different places. Marks after values point to notes of the source that are not given here.
Tests used:
[1] = Body weight of hamsters with cerebellar ataxia during administration; type: in vivo, hamster; details: compared between groups administered with PBS, NK-4 and IGF-1
[2] = system: hamsters with cerebellar ataxia; assay: Histological evaluation of cerebellum of hamsters with cerebellar ataxia; type: in vivo, hamster; details: 10-weeks of age; for Cerebellar volume (mm^3) / Number of Purkinje cells (cells) / Number of granular cells (cells/20000 μm^2): cerebellar ataxia hamsters; for Number of subject (head) with apparent demyelination in cerebellar white matter: five heads per group
Text: Since NK-4 was confirmed to have a neurodegenerative inhibitory action in Experiment 1, hamsters with cerebellar ataxia (cerebellar ataxia is called “cerebellar A” and hamsters with cerebellar ataxia are called “hamsters with cerebellar A”, hereinafter) as a suitable model for human neurodegenerative diseases (e.g., spinal cerebellar degeneration) were subjected to examine the influence of NK-4 administration on their behaviors and brain tissues. Twenty-five hamsters with natural mutation (Nna1 inhibition), which are known to lose Purkinje's cells after three-weeks of age and then induce a spontaneous onset of kinetic motor ataxia after seven-weeks of age (see Akita K. et al., “J. Neurogenetics”, Vol. 21, pp. 19-29, 2007), had been fed at Hayashibara Biochemical Laboratories., Inc., Okayama, Japan, were randomly allocated to the test groups 1 to 5, five heads in each group, as shown in Table 2. Prior to the onset of cerebellar A (at three-weeks of age), PBS was started to administer to the hamsters in the test group 1 at a dose of 10 ml/kg/day. Prior to the onset of cerebellar A (at three-weeks of age), NK-4 was started to be administered to the hamsters in the test groups 2 to 4 at a daily dose of 20 μg/kg, 100 μg/kg or 500 μg/kg. “IGF-1, human, a product name of insulin-like growth factor, commercialized by Assaypro LLC, MO, USA. These administered ingredients were intraperitoneally administered daily to hamsters once a day up to 10-weeks of age. The degree of symptom of cerebellar A and the improvement effect on the symptom by NK-4 were evaluated with an index of improvement in motor coordination of hamsters by conducting once a week the later described rotarod test and the slant tolerance test. At the age of 10-weeks, the hamsters were subjected to counting the falling down frequency and extracted their brains, which were then histologically evaluated. In parallel, the concentration of glutamic acid in the bloods and cerebrospinal fluids (CSF) of the hamsters was assayed. As a test group 6, five normal hamsters, with the same age as the hamsters with cerebellar A used in the test groups 1 to 5, were provided and tested similarly as the hamsters with cerebellar A in such a manner of intraperitoneally administering PBS to them at a dose of 10 ml/kg/day once a day up to 10-weeks of age.
Hamsters, 10-weeks of age, after completion of test on coordinated movement such as a confirmation of falling down frequency were intraperitoneally received 50 mg/kg pentobarbital, bled from their postcavas to let them die, and extracted their cerebra and cerebella, followed by fixing them with a 10% by volume of formalin solution. The resulting cerebra and cerebella were photographed with a digital camera apart from a prescribed high position and measured diameters in sagittal and horizontal directions for each photograph. The volumes of cerebra and cerebella were respectively determined by calculating with the formula, (length of sagittal direction)^2×(length of horizontal direction)×0.5; and the data from five heads in each group were averaged. The hamsters with cerebella A used in this experiment are known to reduce cell density of Purkinje's cells and granular cells. Cerebellar slices, which had been cut out in sagittal direction, were stained with hematoxylin-eosin stain, and microscopically observed to count the total number of Purkinje's cells within a Purkinje's cell layer ([…] I to X) and the number of granular cells per unit area, and to confirm subjects in which demyelination was observed within their cerebellar white matters. The results are in Table 5 in parallel.

APP Tg mouse = assay: Water maze test, APP transgenic mouse; type: in vivo; details: for Water maze test 1st day / Water maze test 2nd day / Water maze test 3rd day / Water maze test 4th day: time required for arriving the platform
PI3K-Akt cascade = assay: Actions of NK-4 on PC12-HS cells in presence of K252a or LY294002; type: cell-based, rat; details: concrete data omitted
[3] = system: C57BL/6J mice with cerebrovascular dementia; assay: Novelty object recognition test, mouse with cerebrovascular dementia (ligation of right common carotid artery); type: in vivo; details: for Object discrimination index: mice with ligation of right common carotid artery, NK-4 i.p. five days a week

SMILES: CCN1C=CC(=CC=C(C=Cc2cc[n+](CC)c3ccccc23)c2cc[n+](CC)c3ccccc23)c2ccccc21.[I-].[I-] [NK-4]
- body weight of hamsters with cerebellar A, weighed once every week up to 10-weeks of age [1]: no significant difference
- Cerebellar volume (mm^3) ([2]; 20 μg/kg body weight): 76.0 ± 8.2* mm^3
- Number of Purkinje cells (cells) ([2]; 20 μg/kg body weight): 187 ± 37 cells
- Number of granular cells (cells/20000 μm^2) ([2]; 20 μg/kg body weight): 408 ± 8 cells/20000 μm^2
- Cerebellar volume (mm^3) ([2]; 100 μg/kg body weight): 77.0 ± 2.8* mm^3
- Number of Purkinje cells (cells) ([2]; 100 μg/kg body weight): 252 ± 29 cells
- Number of granular cells (cells/20000 μm^2) ([2]; 100 μg/kg body weight): 419 ± 6 cells/20000 μm^2
- Cerebellar volume (mm^3) ([2]; 500 μg/kg body weight): 80.5 ± 10.8* mm^3
- Number of Purkinje cells (cells) ([2]; 500 μg/kg body weight): 231 ± 41 cells
- Number of granular cells (cells/20000 μm^2) ([2]; 500 μg/kg body weight): 436 ± 7 cells/20000 μm^2
- Number of subject (head) with apparent demyelination in cerebellar white matter ([2]; 20 μg/kg body weight): 4 head
- Number of subject (head) with apparent demyelination in cerebellar white matter ([2]; 100 μg/kg body weight): 1 head
- Number of subject (head) with apparent demyelination in cerebellar white matter ([2]; 500 μg/kg body weight): 0 head
- Water maze test 1st day (APP Tg mouse; dose 100 μg/kg body weight): 101 ± 38
- Water maze test 2nd day (APP Tg mouse; dose 100 μg/kg body weight): 73 ± 13
- Water maze test 3rd day (APP Tg mouse; dose 100 μg/kg body weight): 59 ± 10
- Water maze test 4th day (APP Tg mouse; dose 100 μg/kg body weight): 34 ± 10
- Water maze test 1st day (APP Tg mouse; dose 500 μg/kg body weight): 116 ± 3
- Water maze test 2nd day (APP Tg mouse; dose 500 μg/kg body weight): 63 ± 12
- Water maze test 3rd day (APP Tg mouse; dose 500 μg/kg body weight): 40 ± 7
- Water maze test 4th day (APP Tg mouse; dose 500 μg/kg body weight): 27 ± 7
- water maze test (in words) (APP Tg mouse; i.p. five times a week for 12 weeks): improved the dementia
- inhibition by K252a of the actions of NK-4 on PC12-HS cell growth promotion and neurite outgrowth (PI3K-Akt cascade; K252a, protein kinase inhibitor specific to TrkA): did not inhibit
- inhibition by LY294002 of the action of NK-4 (PI3K-Akt cascade; LY294002, PI3K inhibitor): is inhibited by LY294002
- Survibal percentage of cells when admixed with cytotoxic factor (%) Nutrition starvation (PC12-HS cells; NK-4 500 ng/ml): 78 ** %
- Survibal percentage of cells when admixed with cytotoxic factor (%) Nutrition starvation (PC12-HS cells; NK-4 5000 ng/ml): 64 ** %
- concentration required for protection action against nutrition starvation (PC12-HS cells; PC12-HS cells): 500 ng/mL
- Survibal percentage of cells when admixed with cytotoxic factor (%) Nutrition starvation (PC12-HS cells; PC12-HS cells, FBS-free medium, 3 days, NK-4 50 ng/ml, control free of cytotoxic factor = 100): 47%
- adverse effect ([3]; mice with cerebrovascular dementia, i.p. five days a week): No adverse effect
- Object discrimination index ([3]; On the 3rd week after operation): 0.51 ± 0.22
- Object discrimination index ([3]; On the 4th week after operation): 0.31 ± 0.20

Reference: patent US20120035187A1 (priority 2009, published 2012)
